Measured values from article PMC9369419 (International Journal of Molecular Sciences, 2022).

What was measured:
Format in all cases: cell-based
[1] = biological target: T1, GluA2(Q)i (Rattus norvegicus, UniProt P19491); assay: Intracellular Ca2+ imaging assay, HEK293 cells expressing GluA2(Q)i; conditions: 10 µM compound, Ca2+ fluorescence, read-out: inhibition of agonist-evoked responses at GluA2
T1 construct: expressed in transfected cells
Text: For the determination of antagonistic activity of compounds at GluK1, GluK3 and GluA2 receptors, stable HEK293 cell lines expressing rat GluK1b(Q), GluK3a, and GluA2(Q)i were created. A polyclonal stable cell line expressing GluK3a was created as described previously. For the creation of polyclonal stable cell lines expressing GluK1and GluA2 receptors, cDNA encoding blasticidin-S deaminase (blas) enzymes were inserted into the pIRES plasmid vector (Clontech, Mountain View, CA, USA) to create the plasmid vector pRES(blas). […] For functional assays, cells were plated into clear-bottomed, black 96-well fluorescence culture plates (Corning, Vordingborg, Denmark), and when >70% confluent, the cells were loaded with 2 μM Fluo 4-AM calcium sensitive dye (Abcam, Cambridge, UK) and used for the imaging of agonist-evoked changes in intracellular Ca^2+ using a FlexStation I plate reader (Molecular Devices, San Jose, CA, USA). […] Changes in dye fluorescence in response to the addition of an agonist solution were then measured at 538 nm using excitation at 485 nm and emission cut-off at 515 nm. Baseline fluorescence was measured for 16 s before the addition of 50 µL agonist solution to each well of the assay plate, and fluorescence was measured for 120 to 160 s after addition of the agonists. […] Responses were determined in at least triplicate at each compound concentration.

[2] = biological target: T2, human mGluR4 (Homo sapiens, UniProt Q14833); assay: mGluR4 functional assay (IP1 accumulation, HEK293A cells); conditions: 0.1 mM compound
T2 construct: expressed in transfected cells; host or cells: HEK293A (transient, Lipofectamine 2000)
T2 sequence (Q14833 33-912): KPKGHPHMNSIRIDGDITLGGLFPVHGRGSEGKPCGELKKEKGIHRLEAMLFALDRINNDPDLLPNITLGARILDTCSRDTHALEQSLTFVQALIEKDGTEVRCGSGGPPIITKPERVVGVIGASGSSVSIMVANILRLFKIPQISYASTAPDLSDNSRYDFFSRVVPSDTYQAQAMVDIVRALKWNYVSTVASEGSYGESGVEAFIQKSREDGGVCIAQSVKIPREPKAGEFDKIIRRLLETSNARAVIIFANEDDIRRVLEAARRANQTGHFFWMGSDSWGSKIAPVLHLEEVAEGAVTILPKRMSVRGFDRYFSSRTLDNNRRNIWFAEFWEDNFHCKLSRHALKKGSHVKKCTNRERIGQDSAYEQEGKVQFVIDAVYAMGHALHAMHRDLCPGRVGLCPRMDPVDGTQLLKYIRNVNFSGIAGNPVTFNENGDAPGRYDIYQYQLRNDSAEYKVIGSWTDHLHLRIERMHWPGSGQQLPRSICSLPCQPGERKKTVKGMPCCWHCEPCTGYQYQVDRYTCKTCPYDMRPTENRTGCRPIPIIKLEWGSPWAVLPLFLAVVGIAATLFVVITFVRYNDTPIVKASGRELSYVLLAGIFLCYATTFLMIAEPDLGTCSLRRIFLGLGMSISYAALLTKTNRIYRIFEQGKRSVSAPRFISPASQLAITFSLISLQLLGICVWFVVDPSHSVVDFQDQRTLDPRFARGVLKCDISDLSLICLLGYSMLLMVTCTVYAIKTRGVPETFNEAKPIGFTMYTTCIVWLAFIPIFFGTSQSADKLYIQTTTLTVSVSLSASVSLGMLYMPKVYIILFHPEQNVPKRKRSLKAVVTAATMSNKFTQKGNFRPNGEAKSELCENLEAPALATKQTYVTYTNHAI
Text: (§1) Dulbecco’s modified Eagle medium (DMEM), dialyzed fetal bovine serum (FBS), Opti-MEM, penicillin-streptomycin, Dulbecco’s phosphate-buffered saline (DPBS), Hank’s balanced salt solution (HBSS) and Lipofectamine 2000 were purchased from Thermo Fisher Scientific (Waltham, MA, USA). An IP-One Gq kit was purchased from Cisbio (Codolet, France). Quisqualate and poly-D-lysine (PDL) hydrobromide were purchased from Sigma-Aldrich (St. Louis, MO, USA). Falcon clear, tissue culture-treated 96-well plates were from Corning Inc. (Corning, NY, USA). OptiPlate-384 white, opaque 384-well plates were from PerkinElmer, (Waltham, MA, USA). L-AP4 and LY341495 were purchased from Tocris Bioscience (Bristol, UK). The HEK293A cells were a kind gift from Dr. Asuka Inoue (Tohoku University, Sendai, Japan). Plasmids encoding human mGluR4 and Flag-tagged human mGluR5 were kind gifts from Jesper M. Mathiesen (University of Copenhagen, København, Denmark). […]
(§2) Cell culture and IP1 Assay. […] IP1 accumulation was measured on an EnVision 2104 Multilabel Reader using a 340/60 nm excitation filter and 615/8.5 nm (donor) and 665/7.5 nm (acceptor) emission filters. HTRF ratios were calculated as the ratio of acceptor over donor emission (665 nm/615 nm) and converted to IP1 concentrations with an IP1 standard curve according to the instructions from the kit manufacturer.

[3] = biological target: T3, human mGluR5 (Homo sapiens, UniProt P41594); assay: mGluR5 functional assay (IP1 accumulation, HEK293A cells); conditions: 0.1 mM compound
T3 construct: Flag; expressed in transfected cells; host or cells: HEK293A (transient, Lipofectamine 2000)
T3 sequence (P41594 21-1212): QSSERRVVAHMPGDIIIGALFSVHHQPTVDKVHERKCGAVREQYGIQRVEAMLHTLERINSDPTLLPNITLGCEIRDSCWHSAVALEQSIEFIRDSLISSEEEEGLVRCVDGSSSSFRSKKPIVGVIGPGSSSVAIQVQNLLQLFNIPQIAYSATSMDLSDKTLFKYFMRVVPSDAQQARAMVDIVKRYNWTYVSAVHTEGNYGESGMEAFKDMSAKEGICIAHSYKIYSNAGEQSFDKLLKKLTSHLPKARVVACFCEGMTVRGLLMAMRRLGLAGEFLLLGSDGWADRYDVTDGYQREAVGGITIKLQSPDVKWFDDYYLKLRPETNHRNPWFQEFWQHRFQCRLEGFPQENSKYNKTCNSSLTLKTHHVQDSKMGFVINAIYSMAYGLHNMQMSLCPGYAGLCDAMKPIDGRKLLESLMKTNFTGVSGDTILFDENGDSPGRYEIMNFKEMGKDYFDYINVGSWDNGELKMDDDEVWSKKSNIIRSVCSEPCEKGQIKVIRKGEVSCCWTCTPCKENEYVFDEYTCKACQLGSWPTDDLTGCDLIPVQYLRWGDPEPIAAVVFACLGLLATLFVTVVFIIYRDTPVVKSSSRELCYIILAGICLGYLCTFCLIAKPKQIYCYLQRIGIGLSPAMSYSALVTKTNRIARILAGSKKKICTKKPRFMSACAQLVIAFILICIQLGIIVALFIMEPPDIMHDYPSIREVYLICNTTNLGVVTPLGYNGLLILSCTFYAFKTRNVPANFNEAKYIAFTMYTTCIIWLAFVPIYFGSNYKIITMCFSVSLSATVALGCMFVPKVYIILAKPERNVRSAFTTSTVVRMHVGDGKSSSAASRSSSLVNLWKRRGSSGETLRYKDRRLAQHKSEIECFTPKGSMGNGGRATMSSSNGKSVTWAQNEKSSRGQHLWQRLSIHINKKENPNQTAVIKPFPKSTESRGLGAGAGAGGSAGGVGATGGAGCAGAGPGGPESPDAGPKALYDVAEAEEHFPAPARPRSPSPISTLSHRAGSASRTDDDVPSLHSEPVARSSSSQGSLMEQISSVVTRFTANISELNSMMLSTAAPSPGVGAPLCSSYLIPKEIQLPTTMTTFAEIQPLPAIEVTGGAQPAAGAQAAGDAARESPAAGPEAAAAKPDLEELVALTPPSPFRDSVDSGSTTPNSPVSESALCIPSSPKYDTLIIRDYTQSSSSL
Text: as §1, §2

T1 sequence (P19491 22-883 isoform P19491-2 limits assumed): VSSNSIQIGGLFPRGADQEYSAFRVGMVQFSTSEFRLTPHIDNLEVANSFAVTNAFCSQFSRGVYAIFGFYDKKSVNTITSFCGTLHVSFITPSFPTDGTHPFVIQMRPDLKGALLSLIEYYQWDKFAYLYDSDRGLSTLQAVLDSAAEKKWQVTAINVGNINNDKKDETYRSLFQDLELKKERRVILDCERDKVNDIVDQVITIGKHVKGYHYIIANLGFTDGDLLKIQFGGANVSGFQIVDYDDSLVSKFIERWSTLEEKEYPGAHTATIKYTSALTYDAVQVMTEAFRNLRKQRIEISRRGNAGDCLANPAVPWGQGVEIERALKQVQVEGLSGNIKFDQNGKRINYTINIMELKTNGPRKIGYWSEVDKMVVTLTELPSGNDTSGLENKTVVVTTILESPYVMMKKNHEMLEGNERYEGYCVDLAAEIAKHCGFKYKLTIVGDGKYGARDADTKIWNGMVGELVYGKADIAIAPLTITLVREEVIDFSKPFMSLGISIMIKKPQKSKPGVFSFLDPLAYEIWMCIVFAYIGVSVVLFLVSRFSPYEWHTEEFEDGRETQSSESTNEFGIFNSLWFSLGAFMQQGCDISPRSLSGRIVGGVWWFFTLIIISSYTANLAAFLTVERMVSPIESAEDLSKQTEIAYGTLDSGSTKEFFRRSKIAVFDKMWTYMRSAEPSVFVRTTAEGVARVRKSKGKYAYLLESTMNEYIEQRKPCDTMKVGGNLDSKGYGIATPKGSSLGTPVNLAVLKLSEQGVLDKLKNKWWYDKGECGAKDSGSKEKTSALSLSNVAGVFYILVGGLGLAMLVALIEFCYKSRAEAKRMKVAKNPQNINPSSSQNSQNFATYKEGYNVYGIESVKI

inhibition at 10 µM [1]: < 5%
agonist or antagonist activity at mGluR4 [2]: neither agonistic nor antagonistic
agonist or antagonist activity at mGluR5 [3]: neither agonistic nor antagonistic
Compound: O=C(Nn1c(=O)c(=O)[nH]c2cc(C#Cc3cnc4cccnn34)ccc21)c1ccccc1 [Compound 28]
